How the values were obtained:
[1] = target: T1, Calcitonin gene-related peptide type 1 receptor (Homo sapiens, UniProt O60894+Q16602); test: Displacement of [125I]hCGRP from human cloned CGRP receptor expressed in HEK293 cells; format: cell-based
[2] = target: T1, Calcitonin gene-related peptide type 1 receptor; test: Binding affinity to human recombinant CGRP receptor

T1 sequence (Q16602 whole entry, one chain of several): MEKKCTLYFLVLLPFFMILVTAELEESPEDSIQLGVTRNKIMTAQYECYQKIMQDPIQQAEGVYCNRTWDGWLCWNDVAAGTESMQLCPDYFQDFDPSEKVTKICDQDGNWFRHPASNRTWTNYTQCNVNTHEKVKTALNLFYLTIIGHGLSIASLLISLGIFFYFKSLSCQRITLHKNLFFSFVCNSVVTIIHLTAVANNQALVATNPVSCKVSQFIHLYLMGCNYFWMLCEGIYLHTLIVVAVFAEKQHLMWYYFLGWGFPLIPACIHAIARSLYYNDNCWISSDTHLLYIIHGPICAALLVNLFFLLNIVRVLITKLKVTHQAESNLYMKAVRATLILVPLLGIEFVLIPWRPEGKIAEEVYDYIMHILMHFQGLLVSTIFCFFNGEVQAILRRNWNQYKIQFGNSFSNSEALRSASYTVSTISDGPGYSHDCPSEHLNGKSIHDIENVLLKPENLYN

Row | Structure (SMILES) | Ki [1] | Ki [2]
1 | CC(C)(C)C(=O)N(Cc1cnc2nc3c(cc2c1)C[C@@]1(C3)C(=O)Nc2ncccc21)[C@@H]1CCc2ccccc21 | 0.15 nM | –
2 | CN1C(=O)NC(=O)[C@]12Cc1cc3cc(CN(Cc4ccccc4)C(=O)C(C)(C)C)cnc3cc1C2 | – | 12 nM
3 | CC(C)(C)C(=O)N(Cc1cc(F)cc(F)c1)Cc1cnc2cc3c(cc2c1)C[C@@]1(C3)C(=O)Nc2ncccc21 | 0.69 nM | –
4 | C[C@H](c1ccccc1)N(Cc1cnc2cc3c(cc2c1)C[C@@]1(C3)C(=O)Nc2ncccc21)C(=O)C(C)(C)C | 0.1 nM | –
5 | C[C@H](c1cc(F)cc(F)c1)N(Cc1cnc2cc3c(cc2c1)C[C@@]1(C3)C(=O)Nc2ncccc21)C(=O)C(C)(C)C | 0.12 nM | –

The next lines start with the values.

Row | Ki [1] | Ki [2] | Structure (SMILES)
6 | 0.037 nM | – | CC(C)(C)C(=O)N(Cc1cnc2cc3c(cc2c1)C[C@@]1(C3)C(=O)Nc2ncccc21)C[C@@H]1CCc2ccccc21
7 | 0.11 nM | – | CC(C)(C)C(=O)N(Cc1ccc2nc3c(cc2c1)C[C@@]1(C3)C(=O)Nc2ncccc21)[C@@H]1CCc2ccccc21
8 | – | 2.2 nM | CN1C(=O)NC(=O)C12Cc1cc3ccc(CN(Cc4ccccc4)C(=O)C(C)(C)C)nc3cc1C2 (stereo unspecified)
9 | – | 35 nM | CN1C(=O)NC(=O)C12Cc1cc3cc(CN(Cc4ccccc4)C(=O)C(C)(C)C)cnc3cc1C2 (stereo unspecified)
10 | 1.3 nM | – | CC(C)(C)C(=O)N(Cc1ccccc1)Cc1cnc2cc3c(cc2c1)C[C@@]1(C3)C(=O)Nc2ncccc21
11 | 0.3 nM | – | CC1(C)CC[C@@H](c2cc(F)cc(F)c2)N(Cc2cnc3cc4c(cc3c2)C[C@@]2(C4)C(=O)Nc3ncccc32)C1=O
